Test results from PMC9106665 (Communications Biology, 2022).
Changes are numbered by the printed parent chain. In brackets after ≈: the same amount, converted by molar mass. Where two headings read alike, the source gives them in different places.

Tests used:
EcDHFR D27E [1] = target: T1, EcDHFR D27E (Escherichia coli, UniProt P0ABQ4, D27E); test: Steady-state kinetic measurements; assay type: biochemical; details: varied substrate 1 to 200 µM, 25 °C
T1 construct: using E. coli DHFR template previously synthesized by GeneScript; made in house; host or cells: E. coli BL21(DE3)
T1 sequence (P0ABQ4 1-159 D27E): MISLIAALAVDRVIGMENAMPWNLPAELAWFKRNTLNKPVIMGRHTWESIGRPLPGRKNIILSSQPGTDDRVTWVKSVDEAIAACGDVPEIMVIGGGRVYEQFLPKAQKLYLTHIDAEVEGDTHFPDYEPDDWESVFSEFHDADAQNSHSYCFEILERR
Text: (§1) using a nonlinear regression method in GraphPad Prism 9.2.0 software. To determine the turnover number (kcat) using the same model, the enzyme concentration (based on the protein concentration determined by Bradford assay) was constrained to a constant value and analyzed by the following equation (Eq. 3):3 Y=Et×kcat×X/(Km+X)

EcDHFR D27E/L28Q [2] = target: T2, EcDHFR D27E/L28Q (Escherichia coli, UniProt P0ABQ4, D27E/L28Q); test: Steady-state kinetic measurements; assay type: biochemical; details: varied substrate 1 to 200 µM, 25 °C
T2 construct: using E. coli DHFR template previously synthesized by GeneScript; made in house; host or cells: E. coli BL21(DE3)
T2 sequence (P0ABQ4 1-159 D27E/L28Q): T1 sequence (P0ABQ4 1-159 D27E) with L28Q
Text: as §1

EcDHFR L28Q [3] = target: T3, EcDHFR L28Q (Escherichia coli, UniProt P0ABQ4, L28Q); test: Steady-state kinetic measurements; assay type: biochemical; details: varied substrate 1 to 200 µM, 25 °C
T3 construct: using E. coli DHFR template previously synthesized by GeneScript; made in house; host or cells: E. coli BL21(DE3)
T3 sequence (P0ABQ4 1-159 L28Q): T1 sequence (P0ABQ4 1-159 D27E) with E27D, L28Q
Text: as §1

[4] = tested on: E. coli JW0451 acrB mutant strain; test: microbe, parasite or virus in culture; assay type: cell-based; details: for MIC: w/o SMX, 80% inhibition of growth, 18 to 20 hours, 37°C
Procedure: (§2) Preparation, handling of cultures and the antibiotic susceptibility testing was performed according to CLSI guidelines. […] The compounds at the highest concentrations alone and paired with Sulfamethoxazole (1:19 w/w ratio) were then added to the first well before being serially diluted (2-fold) throughout the plate, leaving the last well with broth only (negative growth control). Next, 50 μl of the inoculum was added to each well.

[5] = tested on: E. coli BL21(DE3) strain overexpressing EcDHFR wt; test: Antibacterial activity (MIC); assay type: cell-based; details: Escherichia coli
[6] = tested on: E. coli BL21(DE3) strain overexpressing DfrA1; test: Antibacterial activity (MIC); assay type: cell-based; details: Escherichia coli
[7] = tested on: E. coli BL21(DE3) strain overexpressing DfrA5; test: Antibacterial activity (MIC); assay type: cell-based; details: Escherichia coli
[8] = tested on: NC(=O)C1=CN([C@H]2O[C@H](COP(=O)(O)OP(=O)(O)OC[C@H]3O[C@@H](n4cnc5c(N)ncnc54)[C@H](OP(=O)(O)O)[C@@H]3O)[C@@H](O)[C@H]2O)C=CC1; test: purified protein, by the assay type; assay type: biochemical, E. coli; details: other: varied substrate 1 to 200 µM, 25 °C
Text: as §1

[9] = tested on: Nc1nc2c(c(=O)[nH]1)N=C(CNc1ccc(C(=O)N[C@@H](CCC(=O)O)C(=O)O)cc1)CN2; test: purified protein, by the assay type; assay type: biochemical, E. coli; details: other: varied substrate 1 to 200 µM, 25 °C
Text: as §1

[10] = tested on: NC(=O)C1=CN([C@H]2O[C@H](COP(=O)(O)OP(=O)(O)OC[C@H]3O[C@@H](n4cnc5c(N)ncnc54)[C@H](OP(=O)(O)O)[C@@H]3O)[C@@H](O)[C@H]2O)C=CC1; test: Steady-state kinetic measurements; assay type: biochemical, Escherichia coli; details: other: varied substrate 1 to 200 µM, 25 °C
E. coli DHFR (EcDHFR) = target: T4, E. coli DHFR (EcDHFR) (Escherichia coli, UniProt P0ABQ4); test: biochemical
T4 construct: E. coli DHFR gene (UniProtKB:P0ABQ4) and dfrA1 gene (UniProtKB:A4GRC7) were synthesized and cloned in pET-41a (+) vector; made in house; host or cells: E. coli BL21(DE3)
Procedure: (§3) The assay was performed at room temperature using the Shimadzu UV/visible spectrophotometer. A standard reaction buffer contained 20 mM TES, pH 7.0, 50 mM KCl, 10 mM β-mercapthoethanol, 0.5 mM EDTA, and 1 mg/ml BSA. […] All measurements were performed in triplicate, from at least two independent experiments.

DfrA5 [11] = target: T5, DfrA5 (Escherichia coli, UniProt P11731); test: biochemical; parameters: species or system E. coli
Procedure: as §3

EcDHFR D27E [12] = target: T1, EcDHFR D27E; test: Enzyme inhibition assay (NADPH oxidation, 340 nm); assay type: biochemical
Procedure: as §3

EcDHFR D27E/L28Q [13] = target: T2, EcDHFR D27E/L28Q; test: Enzyme inhibition assay (NADPH oxidation, 340 nm); assay type: biochemical
Procedure: as §3

EcDHFR L28Q [14] = target: T3, EcDHFR L28Q; test: Enzyme inhibition assay (NADPH oxidation, 340 nm); assay type: biochemical
Procedure: as §3

DfrA1 and DfrA5 = assay type: biochemical, E. coli; details: range over DfrA1 and DfrA5
Procedure: as §3

EcDHFR = target: T6, EcDHFR (Escherichia coli, UniProt P0ABQ4); assay type: binding
T6 construct: E. coli DHFR gene (UniProtKB:P0ABQ4) and dfrA1 gene (UniProtKB:A4GRC7) were synthesized and cloned in pET-41a (+) vector; made in house; host or cells: E. coli BL21(DE3)
Procedure: (§4) In all, 200 µg of purified enzyme was preincubated for 18 h without and with a 10× molar excess of the ligand(s) (NADPH, TMP or PLA) in 20 mM Hepes 7.5, 100 mM KCl, 5% glycerol, ±2.0% DMSO and 2 mM DTT buffer. […] Changes in intrinsic fluorescence intensity (measured ratio of absorbance at 350 nm over 330 nm) from tryptophan residues were used to calculate derivatives using the evaluation features provided by the Tycho instrument.

DfrA1 = target: T7, DfrA1 (Escherichia coli, UniProt P00382); assay type: binding, E. coli
T7 construct: dfrA1 gene (UniProtKB:A4GRC7) were synthesized and cloned in pET-41a (+) vector; made in house; host or cells: E. coli BL21(DE3)
T7 sequence (P00382 1-157): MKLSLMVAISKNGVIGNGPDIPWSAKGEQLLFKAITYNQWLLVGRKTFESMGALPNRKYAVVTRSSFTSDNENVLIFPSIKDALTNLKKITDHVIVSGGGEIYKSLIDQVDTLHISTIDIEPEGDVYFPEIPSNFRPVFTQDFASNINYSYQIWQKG
Procedure: as §4

E. coli BW25113 = test: microbe, parasite or virus in culture; assay type: cell-based; details: for MIC: Escherichia coli, 80% inhibition of growth
Procedure: as §2

DfrA5 [15] = target: T5, DfrA5; assay type: binding, E. coli; parameters: E. coli dfrA5 gene (UniProtKB:A0A4Y6L037) was synthesized and cloned in pET-24a (+) vector with the same restriction sites; 6xHis tag (C); made in house; host or cells: E. coli BL21(DE3)
Procedure: as §4, with “instrument. The inflection temperature (Ti) as a marker of protein structural integrity was determined by the first derivative of the signal (ratio of 350 nm/330 nm).” for “instrument.”

[16] = binary complex, 10× molar excess of ligand

Nc1nc2c(c(=O)[nH]1)N=C(CNc1ccc(C(=O)N[C@@H](CCC(=O)O)C(=O)O)cc1)CN2 [DHF, dihydrofolate]
Km (EcDHFR D27E [1]): 15.4 ± 2.1 µM
Km (EcDHFR D27E/L28Q [2]): 56.6 ± 8 µM
Km (EcDHFR L28Q [3]): 5.2 ± 1 µM

COc1cc(Cc2cnc(N)nc2N)cc(OC)c1OC [Trimethoprim, reference compound]
MIC ([4]; Escherichia coli): 0.04 µg/mL (≈ 0.138 µM)
MIC ([5]; w/ SMX (1:19)): 0.078 µg/mL (≈ 0.269 µM)
MIC ([5]; w/o SMX): 0.625 µg/mL (≈ 2.15 µM)
MIC ([6]; w/ SMX (1:19)): > 20 µg/mL
MIC ([6]; w/o SMX): > 20 µg/mL
MIC ([7]; w/ SMX (1:19)): > 20 µg/mL
MIC ([7]; w/o SMX): > 20 µg/mL

DfrA5 (Escherichia coli)
Km [8]: 19.9 ± 6.1 µM
kcat [8]: 34.3 ± 3.3 s⁻¹
kcat/Km [8]: 1.7e+06 ± 500000 M⁻¹ s⁻¹
Km [9]: 24.2 ± 6.6 µM
kcat [9]: 31.4 ± 3.2 s⁻¹
kcat/Km [9]: 1.3e+06 ± 400000 M⁻¹ s⁻¹

EcDHFR (Escherichia coli K-12)
Km [10]: 5.8 ± 0.8 µM
kcat/Km [10]: 600000 ± 70000 M⁻¹ s⁻¹

CCc1nc(N)nc(N)c1C#CC(C)c1cc2c(c(-c3ccc(CN)cc3)c1)OCO2 (centres unmarked) [UCP1223]
Ki (E. coli DHFR (EcDHFR)): 1.58 ± 0.26 nM
Ki (DfrA5 [11]): 16.8 ± 0.29 nM
Ki (EcDHFR D27E [12]): 12.8 ± 0.56 nM
fold increase in Ki over EcDHFR (EcDHFR D27E [12]; D27E substitution): 8 fold
Ki (EcDHFR D27E/L28Q [13]): 187 ± 5.5 nM
fold loss in affinities relative to EcDHFR (EcDHFR D27E/L28Q [13]; combinatorial mutant D27E/L28Q): 118 fold
Ki (EcDHFR L28Q [14]): 7.37 ± 0.72 nM
fold loss of activity against DfrA1 and DfrA5 compared to EcDHFR (DfrA1 and DfrA5): 10–14 fold
Ti 1 (EcDHFR; [16]): 68.5 ± 1.4 °C
Ti 2 (EcDHFR; [16]): 80.8 ± 0.2 °C
Δ1 (Ti shift vs apo) (EcDHFR; [16]): 18.9 °C
Δ2 (Ti shift vs apo) (EcDHFR; [16]): 20.6 °C
Ti 1 (EcDHFR; ternary complex, +NADPH): 78.9 ± 2.4 °C
Ti 2 (EcDHFR; ternary complex, +NADPH): 88.3 ± 0.5 °C
Δ1 (Ti shift vs apo) (EcDHFR; ternary complex, +NADPH): 29.3 °C
Ti (DfrA1; [16]): 58.5 ± 0.1 °C
Δ (Ti shift vs apo) (DfrA1; [16]): 8.7 °C
Ti (DfrA1; ternary complex, +NADPH): 71.2 ± 3.1 °C
Fold difference in MIC (E. coli BW25113; BW25113 w/o SMX vs w/ SMX): 32
MIC (E. coli BW25113; BW25113, w/ SMX (1:19)): 0.625 µg/mL (≈ 1.5 µM)
MIC (E. coli BW25113; BW25113, w/o SMX, 18 to 20 hours, 37°C): 20 µg/mL (≈ 48.1 µM)
Fold difference in MIC ([4]; BW25113 w/o SMX vs JW0451 w/o SMX): 32
MIC ([4]; Escherichia coli): 0.625 µg/mL (≈ 1.5 µM)
MIC [4]: 1.25 µg/mL (≈ 3.01 µM)
MIC ([5]; w/ SMX (1:19)): 1.25 µg/mL (≈ 3.01 µM)
MIC ([5]; w/o SMX): 20 µg/mL (≈ 48.1 µM)
MIC ([6]; w/ SMX (1:19)): 20 µg/mL (≈ 48.1 µM)
MIC ([6]; w/o SMX): > 20 µg/mL
MIC ([7]; w/ SMX (1:19)): 10 µg/mL (≈ 24.1 µM)
MIC ([7]; w/o SMX): > 20 µg/mL
Ti (DfrA5 [15]; [16]): 67.3 ± 1.0 °C
Δ (Ti shift vs apo) (DfrA5 [15]; [16]): 1.0 °C
Ti (DfrA5 [15]; ternary complex, +NADPH): 88.5 ± 0.2 °C

CN(Cc1cnc2nc(N)nc(N)c2n1)c1ccc(C(=O)N[C@@H](CCC(=O)O)C(=O)O)cc1 [Methotrexate, reference compound]
Ki (DfrA5 [11]): 579 ± 73.8 nM

COc1cc(Cc2cnc(N)nc2N)c2c(c1OC)OC(C1CC1)C=C2 (centres unmarked) [Iclaprim, reference compound]
Ki (DfrA5 [11]): 99 ± 13.9 nM
